Experimental data from article doi:10.1101/2023.12.04.569845, “Identification of 4-(6-((2-methoxyphenyl)amino)pyrazin-2-yl)benzoic acids as CSNK2A inhibitors with antiviral activity and improved selectivity over PIM3” (bioRxiv, 2023).
Where two headings read alike, the source gives them in different places. One block for each compound: values may come before it.

How the values were obtained:
Assay in all cases: biochemical
Design in all cases: Thermal shift (DSF, SYPRO Orange) Tm shift of recombinant kinase domains at 10 uM compound
[1] = molecular target: T1, ULK3 (Homo sapiens, UniProt Q6PHR2)
T1 sequence (Q6PHR2 1-472): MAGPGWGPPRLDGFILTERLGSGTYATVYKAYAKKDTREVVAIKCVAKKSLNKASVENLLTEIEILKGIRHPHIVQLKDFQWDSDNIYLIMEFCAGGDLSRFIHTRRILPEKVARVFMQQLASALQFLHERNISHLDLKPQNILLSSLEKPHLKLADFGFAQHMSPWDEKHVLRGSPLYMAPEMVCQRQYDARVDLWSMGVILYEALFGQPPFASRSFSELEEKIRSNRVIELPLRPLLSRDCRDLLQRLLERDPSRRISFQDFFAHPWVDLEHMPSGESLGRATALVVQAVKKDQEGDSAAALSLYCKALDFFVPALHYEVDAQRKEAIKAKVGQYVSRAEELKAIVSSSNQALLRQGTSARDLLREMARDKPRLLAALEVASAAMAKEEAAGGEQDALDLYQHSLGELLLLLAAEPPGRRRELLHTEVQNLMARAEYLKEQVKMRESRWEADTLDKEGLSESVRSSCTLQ

[2] = molecular target: T2, MST2 (Homo sapiens, UniProt Q13188)
T2 construct: gene STK3
T2 sequence (Q13188 1-491): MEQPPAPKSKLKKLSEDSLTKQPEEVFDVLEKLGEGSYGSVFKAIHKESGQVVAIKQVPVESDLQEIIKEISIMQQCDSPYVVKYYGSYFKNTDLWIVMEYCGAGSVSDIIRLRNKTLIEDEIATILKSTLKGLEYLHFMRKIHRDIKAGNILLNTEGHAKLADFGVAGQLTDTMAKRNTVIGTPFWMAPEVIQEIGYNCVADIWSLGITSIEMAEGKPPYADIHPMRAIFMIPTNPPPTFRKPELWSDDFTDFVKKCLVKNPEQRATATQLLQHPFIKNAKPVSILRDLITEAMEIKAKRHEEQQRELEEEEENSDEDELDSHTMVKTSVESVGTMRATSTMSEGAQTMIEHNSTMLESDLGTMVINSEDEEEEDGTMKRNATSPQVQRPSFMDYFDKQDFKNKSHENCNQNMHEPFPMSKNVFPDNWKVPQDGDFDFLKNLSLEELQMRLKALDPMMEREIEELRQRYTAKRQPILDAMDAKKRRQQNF

[3] = molecular target: T3, MSK1_b (Homo sapiens, UniProt O75582)
T3 construct: gene RPS6KA5; second (C-terminal) kinase domain
T3 sequence (O75582 whole entry, the tested form may be a part): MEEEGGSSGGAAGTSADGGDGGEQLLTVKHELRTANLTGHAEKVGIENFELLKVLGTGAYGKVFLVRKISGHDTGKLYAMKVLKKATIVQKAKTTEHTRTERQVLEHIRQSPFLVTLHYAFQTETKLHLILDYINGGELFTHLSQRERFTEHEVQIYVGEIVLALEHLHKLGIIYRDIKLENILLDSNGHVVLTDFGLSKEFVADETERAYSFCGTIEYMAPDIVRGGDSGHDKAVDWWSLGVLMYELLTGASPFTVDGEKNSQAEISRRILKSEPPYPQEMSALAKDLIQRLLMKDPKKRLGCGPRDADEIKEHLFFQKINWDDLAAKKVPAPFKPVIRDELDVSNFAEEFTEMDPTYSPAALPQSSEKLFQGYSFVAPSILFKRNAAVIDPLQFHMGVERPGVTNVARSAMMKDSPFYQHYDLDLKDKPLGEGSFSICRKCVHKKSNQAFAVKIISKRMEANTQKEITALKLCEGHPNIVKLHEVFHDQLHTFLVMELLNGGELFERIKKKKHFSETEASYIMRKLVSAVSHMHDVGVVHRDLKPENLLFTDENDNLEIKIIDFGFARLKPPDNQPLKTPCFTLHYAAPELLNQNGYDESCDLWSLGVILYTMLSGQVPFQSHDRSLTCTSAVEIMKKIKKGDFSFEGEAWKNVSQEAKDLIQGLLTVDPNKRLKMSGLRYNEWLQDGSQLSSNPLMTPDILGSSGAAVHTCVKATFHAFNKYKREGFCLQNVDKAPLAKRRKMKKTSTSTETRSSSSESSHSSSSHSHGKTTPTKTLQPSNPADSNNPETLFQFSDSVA

[4] = molecular target: EPHA5 (Homo sapiens, UniProt P54756)
EPHA5, sequence (P54756 whole entry): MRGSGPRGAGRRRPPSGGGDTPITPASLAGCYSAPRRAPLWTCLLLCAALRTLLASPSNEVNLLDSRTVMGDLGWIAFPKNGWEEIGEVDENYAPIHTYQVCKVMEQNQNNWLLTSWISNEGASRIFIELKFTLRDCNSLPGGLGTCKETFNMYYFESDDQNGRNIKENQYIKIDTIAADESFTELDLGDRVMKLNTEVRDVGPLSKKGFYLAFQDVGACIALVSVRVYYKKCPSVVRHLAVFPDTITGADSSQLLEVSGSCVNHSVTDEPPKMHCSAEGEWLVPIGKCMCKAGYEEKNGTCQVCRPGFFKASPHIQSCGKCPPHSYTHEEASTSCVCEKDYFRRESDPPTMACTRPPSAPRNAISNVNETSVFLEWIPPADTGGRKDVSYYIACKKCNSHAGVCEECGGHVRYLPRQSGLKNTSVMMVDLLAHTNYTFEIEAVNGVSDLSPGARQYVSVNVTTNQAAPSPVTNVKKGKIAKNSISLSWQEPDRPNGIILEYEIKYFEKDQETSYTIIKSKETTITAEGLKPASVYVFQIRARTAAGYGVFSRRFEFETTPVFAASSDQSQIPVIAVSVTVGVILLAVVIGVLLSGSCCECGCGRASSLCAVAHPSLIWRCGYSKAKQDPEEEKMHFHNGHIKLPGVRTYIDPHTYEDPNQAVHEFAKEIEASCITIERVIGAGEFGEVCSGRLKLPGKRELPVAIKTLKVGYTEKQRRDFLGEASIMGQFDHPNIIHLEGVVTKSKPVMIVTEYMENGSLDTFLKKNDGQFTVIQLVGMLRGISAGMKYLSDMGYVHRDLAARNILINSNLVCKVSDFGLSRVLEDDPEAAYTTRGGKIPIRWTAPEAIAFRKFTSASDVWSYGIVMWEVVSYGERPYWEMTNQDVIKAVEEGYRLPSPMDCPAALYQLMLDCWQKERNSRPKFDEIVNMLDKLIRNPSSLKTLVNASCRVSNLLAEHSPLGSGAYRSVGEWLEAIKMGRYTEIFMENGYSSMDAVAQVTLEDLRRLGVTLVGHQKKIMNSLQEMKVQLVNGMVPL

[5] = molecular target: T4, BMPR2 (Homo sapiens, UniProt Q13873)
T4 sequence (Q13873 1-1038): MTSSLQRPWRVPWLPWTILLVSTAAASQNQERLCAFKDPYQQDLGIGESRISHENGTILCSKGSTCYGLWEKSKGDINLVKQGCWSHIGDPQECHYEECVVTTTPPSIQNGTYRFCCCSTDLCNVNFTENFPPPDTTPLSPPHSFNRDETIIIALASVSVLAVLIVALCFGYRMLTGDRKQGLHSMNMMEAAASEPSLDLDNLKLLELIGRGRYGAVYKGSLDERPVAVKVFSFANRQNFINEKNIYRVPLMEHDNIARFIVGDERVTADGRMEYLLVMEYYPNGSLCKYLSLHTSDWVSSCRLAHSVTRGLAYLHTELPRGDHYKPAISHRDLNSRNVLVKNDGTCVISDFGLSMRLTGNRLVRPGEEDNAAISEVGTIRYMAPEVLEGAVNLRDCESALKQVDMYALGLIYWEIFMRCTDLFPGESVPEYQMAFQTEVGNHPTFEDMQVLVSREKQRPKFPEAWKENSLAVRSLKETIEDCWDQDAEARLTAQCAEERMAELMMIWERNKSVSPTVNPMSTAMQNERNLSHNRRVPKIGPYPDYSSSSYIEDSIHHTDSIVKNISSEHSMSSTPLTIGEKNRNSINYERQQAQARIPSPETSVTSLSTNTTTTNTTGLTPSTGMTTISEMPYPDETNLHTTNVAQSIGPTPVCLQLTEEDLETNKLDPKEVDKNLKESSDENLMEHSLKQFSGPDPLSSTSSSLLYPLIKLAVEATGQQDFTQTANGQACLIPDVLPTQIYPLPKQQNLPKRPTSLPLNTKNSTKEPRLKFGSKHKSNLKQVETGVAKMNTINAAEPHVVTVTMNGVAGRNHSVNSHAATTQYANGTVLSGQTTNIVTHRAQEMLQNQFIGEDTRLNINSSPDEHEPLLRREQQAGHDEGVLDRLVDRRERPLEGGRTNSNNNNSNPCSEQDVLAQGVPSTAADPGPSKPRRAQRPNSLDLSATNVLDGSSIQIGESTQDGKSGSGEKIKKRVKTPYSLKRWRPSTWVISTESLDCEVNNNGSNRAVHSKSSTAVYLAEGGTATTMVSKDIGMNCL

ΔTm at 10 µM ([1]; read-out: 7c): 3 °C
ΔTm at 10 µM ([2]; read-out: 7c): 2 °C
ΔTm at 10 µM ([3]; read-out: 7c): 6 °C
ΔTm at 10 µM ([4]; read-out: 7c): 1 °C
ΔTm at 10 µM ([5]; read-out: 7c): 0 °C
Compound: COc1ccc(OC(C)C)cc1Nc1cncc(-c2ccc(C(=O)O)cc2)n1 [7c]

ΔTm at 10 µM ([1]; read-out: 6c): 5 °C
ΔTm at 10 µM ([2]; read-out: 6c): 3 °C
ΔTm at 10 µM ([3]; read-out: 6c): 6 °C
ΔTm at 10 µM ([4]; read-out: 6c): 2 °C
ΔTm at 10 µM ([5]; read-out: 6c): 7 °C
Compound: CC(C)Oc1ccc2ccn(-c3cncc(-c4ccc(C(=O)O)cc4)n3)c2c1 [6c]

ΔTm at 10 µM ([1]; read-out: 2): 7 °C
ΔTm at 10 µM ([2]; read-out: 2): 4 °C
ΔTm at 10 µM ([3]; read-out: 2): 11 °C
ΔTm at 10 µM ([4]; read-out: 2): 2 °C
ΔTm at 10 µM ([5]; read-out: 2): 6 °C
Compound: CC(C)Nc1ccc2cnn(-c3cncc(-c4ccc(C(=O)O)cc4)n3)c2c1 [compound 2, 2]
